Assay results from patent US10227347B2, “Purinyl-N-hydroxyl pyrimidine formamide derivative, preparation methods and uses thereof” (Guizhou Bailing Group Pharmaceutical CO., LTD., priority 2015, dated 2019).
Like-named read-outs stand apart in the source and are kept apart here.

Tests used:
PI3Kβ = target: T1, PI3Kβ (Homo sapiens, UniProt P42338); test: PI3Kβ activity inhibition (ADP-Glo); format: biochemical
T1 construct: purchased Millipore 14-603-K
Method: Detecting the inhibition capability of the compound to PI3Kβ and PI3Kγ activities with ADP-Glo (purchased from Promege Company; Catalog No.: v9102/3). […] The reaction system also comprises substrates as PIP2 and ATP. The reaction buffer system comprises 50 mM HEPES, 3 mM MgCl2, 1 mM EGTA, 100 mM NaCl, 0.03% CHAPS and 2 mM DTT. The pH value of the reaction buffer is 7.5. […] Mixing the system evenly for incubation under ambient temperature for 1 h; getting a new 384 well plate and transferring 5 μL reaction liquid from the each well of original 384 well plate to the corresponding wells of the new 384 well plate; adding 5 μL ADP-Glo which has been preheated to ambient temperature into each new reaction well to terminate the reaction; oscillating it slowly in dark place for 40 min's incubation after it is mixed evenly; adding 10 μL testing liquid in each reaction well, oscillating it for 1 min to mix evenly and incubating it for 1 h, then measuring the fluorescence intensity with a microplate reader and analyzing the result data with the software GraphPad Prism.
Calculating the value of IC50 as per the formula: Y=background data+(top data−background data)/(1+10^((Log IC50−X)*rate of curve))
Where, Y refers to the inhibition ratio (%) and X refers to the compound concentration.

[1] = system: MV4-11 subcutaneous tumor; settings: 10 mg/kg i.v., once per two days, 22 days
From the text: During drug administration, measuring the weight and gross tumor volume of the mice per 2 days and keeping a record. The calculation formula is as V=π/6×A^2×B, where, where, V=gross tumor volume (mm^3), A=tumor width (mm) and B=tumor length (mm). Observing and keeping a record for the survival condition of the tested animals. After drug discontinuance, killing the mice through cervical dislocation and peeling off their tumors as per the operation specification of animal experiment. Evaluating the inhibition capability of the compounds to tumor activities by calculating the tumor inhibitory rate with the formula as: tumor inhibitory rate=(1−tumor weight of treatment group/tumor weight of control group)×100%. Analyzing and comparing the difference between each treatment group and control group with the method of t-test. The grading of significance level of difference is: ***, P<0.001; **, P<0.01; *, P<0.05; no statistical significance (ns), P>0.05.

[2] = system: A2780s cells (ovarian cancer); test: Cell proliferation inhibition, A2780s (MTT); format: cell-based; settings: Homo sapiens
How it was run: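 Cells seeded at 2000-3000/well; adherent lines dosed after attachment, then 96 h incubation with compound. Viability read by MTT for solid-tumour lines (HCT116, A2780s) and CCK-8 for MV4-11; IC50 from four-parameter logistic fit of inhibition ratio versus concentration.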

HDAC9 = target: T2, HDAC9 (Homo sapiens, UniProt Q9UKV0); test: HDAC9 enzyme inhibition (Lys-Ac-AMC); format: biochemical; settings: Table 4, graded
T2 construct: purchased BPS Bioscience 50009
Method: Determining the inhibition capability of HDAC through the substrate method of fluorophore coupled acetylized peptide fragment (Lys-Ac-AMC). HDAC2-11 proteins of subtypes are purchased from BPS Bioscience Company with the Art. […] The reaction buffer system is a modified Tris buffer (pH7.0). The small molecule compounds are prepared and dissolved with 100% DMSO. […] Adding the compound into the reaction wells of the 384 well plate at the designed concentration, then adding 15 μL HDAC enzyme solution into the reaction wells (adding 15 μL blank buffer into the control well 0) for incubation under ambient temperature for 15 min; then adding 10 μL substrate solution to start reaction.
Analyzing the result data with the software GraphPad Prism and calculating the value of IC50 as per the formula: Y=background data+(top data−background data)/(1+10^((Log IC50−X)*rate of curve)). Where, Y refers to the inhibition ratio (%) and X refers to the compound concentration.

[3] = system: acetylated histone H3 (Ac-H3) in A2780s cells; test: Induction of histone H3 acetylation in A2780s cells (cytoblot); format: cell-based; settings: Homo sapiens, 6 h treatment
Method: Specific operation: After the treatment, washing each well once with 50-100 μl of cold TBS buffer [with the composition as 20 mM Tris (trismetyl aminomethane), pH7.5] and fixing it with 100 μL of 4% pre-cooled paraformaldehyde at 4° C. for 1 h; after paraformaldehyde is washed off, adding 50 μL of pre-cooled methyl alcohol in each well and evenly spreading at 4° C. for 5 min; after methyl alcohol is washed off, washing it once with the TBS buffer containing 3% skim milk powder and adding 50 μL of antibody fluid, oscillating it slightly at 4° C. and incubating overnight. For determination of Ac—H3, the antibody fluid is prepared by diluting Ac—H3 antibody and horseradish peroxide coupled secondary antibody to a same system with the TBS buffer containing 3% skim milk powder (Ac—H3 antibody is purchased from Santa Cruz Company and diluted at a ratio of 1:100; horseradish peroxide coupled secondary antibody is purchased from Jackson Company and diluted at a ratio of 1:2000); for determination of acetylated Ac-α-tubulin, the antibody fluid is prepared by diluting Ac-α-tubulin antibody and horseradish peroxide coupled secondary antibody to a same system with the TBS buffer containing 3% skim milk powder (Ac-α-tubulin antibody is purchased from Santa Cruz Company and diluted at a ratio of 1:100; horseradish peroxide coupled secondary antibody is purchased from Jackson Company and diluted at a ratio of 1:2000).
Calculating the value of IC50 as per the formula: Y=background data+(top data−background data)/(1+10^((Log EC50−X)*rate of curve)) Where, Y refers to the activating rate (%) and X refers to the compound concentration.

[4] = 96 h incubation, read-out: Proliferation IC50, Ovarian cancer A2780s

T2 sequence (Q9UKV0 1-1066 isoform Q9UKV0-5): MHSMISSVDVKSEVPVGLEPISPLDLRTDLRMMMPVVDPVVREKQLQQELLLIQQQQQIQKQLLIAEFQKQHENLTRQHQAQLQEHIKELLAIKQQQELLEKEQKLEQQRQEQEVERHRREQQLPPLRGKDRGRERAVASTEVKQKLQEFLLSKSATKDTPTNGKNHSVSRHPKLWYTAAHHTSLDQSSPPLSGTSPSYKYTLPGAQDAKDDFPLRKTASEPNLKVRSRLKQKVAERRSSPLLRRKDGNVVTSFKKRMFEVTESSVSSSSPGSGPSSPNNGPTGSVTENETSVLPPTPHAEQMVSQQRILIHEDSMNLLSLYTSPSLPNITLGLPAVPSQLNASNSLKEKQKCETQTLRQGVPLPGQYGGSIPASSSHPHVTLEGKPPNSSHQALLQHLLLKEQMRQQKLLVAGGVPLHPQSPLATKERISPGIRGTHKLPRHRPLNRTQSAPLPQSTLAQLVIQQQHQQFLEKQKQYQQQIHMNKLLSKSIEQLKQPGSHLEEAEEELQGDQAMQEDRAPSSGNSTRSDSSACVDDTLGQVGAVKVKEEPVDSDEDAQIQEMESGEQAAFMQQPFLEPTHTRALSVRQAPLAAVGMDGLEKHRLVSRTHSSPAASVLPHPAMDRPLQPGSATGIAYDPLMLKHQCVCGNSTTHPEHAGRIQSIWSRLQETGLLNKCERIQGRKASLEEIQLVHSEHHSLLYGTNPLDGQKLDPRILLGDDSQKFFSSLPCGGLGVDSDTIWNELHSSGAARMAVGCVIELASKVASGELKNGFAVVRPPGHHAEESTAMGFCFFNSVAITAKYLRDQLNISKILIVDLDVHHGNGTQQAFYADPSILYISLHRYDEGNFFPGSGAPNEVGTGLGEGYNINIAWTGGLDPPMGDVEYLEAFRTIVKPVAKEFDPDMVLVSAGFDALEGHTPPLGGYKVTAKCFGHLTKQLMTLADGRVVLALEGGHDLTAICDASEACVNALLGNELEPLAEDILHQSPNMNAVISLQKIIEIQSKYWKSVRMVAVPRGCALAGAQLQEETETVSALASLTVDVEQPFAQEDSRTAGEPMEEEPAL
T1 sequence (P42338 whole entry, species assumed): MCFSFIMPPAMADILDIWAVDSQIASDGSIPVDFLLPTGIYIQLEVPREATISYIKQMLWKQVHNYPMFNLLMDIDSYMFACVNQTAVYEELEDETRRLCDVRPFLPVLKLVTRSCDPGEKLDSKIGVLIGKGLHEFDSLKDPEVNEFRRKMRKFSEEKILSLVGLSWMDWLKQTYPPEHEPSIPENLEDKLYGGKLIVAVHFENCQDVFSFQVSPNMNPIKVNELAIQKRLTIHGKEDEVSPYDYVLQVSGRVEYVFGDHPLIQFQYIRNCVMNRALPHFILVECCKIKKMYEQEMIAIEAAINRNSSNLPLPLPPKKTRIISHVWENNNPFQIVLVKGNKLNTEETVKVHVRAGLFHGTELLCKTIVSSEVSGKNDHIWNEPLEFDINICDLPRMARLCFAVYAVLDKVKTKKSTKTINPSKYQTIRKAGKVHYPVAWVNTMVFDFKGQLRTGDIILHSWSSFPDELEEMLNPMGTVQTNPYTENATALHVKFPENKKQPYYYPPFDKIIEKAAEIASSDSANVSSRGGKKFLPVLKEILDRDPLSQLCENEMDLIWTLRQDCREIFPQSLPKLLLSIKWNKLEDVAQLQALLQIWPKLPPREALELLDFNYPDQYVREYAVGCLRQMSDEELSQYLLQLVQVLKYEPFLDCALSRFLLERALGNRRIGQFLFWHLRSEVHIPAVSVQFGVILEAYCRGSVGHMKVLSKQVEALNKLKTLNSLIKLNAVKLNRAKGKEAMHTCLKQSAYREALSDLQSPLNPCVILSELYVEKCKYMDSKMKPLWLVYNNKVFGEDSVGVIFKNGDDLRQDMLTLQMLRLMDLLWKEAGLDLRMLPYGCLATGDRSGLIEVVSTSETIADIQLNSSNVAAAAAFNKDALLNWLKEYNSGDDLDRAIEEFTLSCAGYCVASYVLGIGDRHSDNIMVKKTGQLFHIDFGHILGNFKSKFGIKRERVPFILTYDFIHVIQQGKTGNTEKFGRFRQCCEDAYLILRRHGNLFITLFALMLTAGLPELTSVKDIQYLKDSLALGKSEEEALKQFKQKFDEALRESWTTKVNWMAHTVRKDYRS
T1 sequence (P27986 whole entry partner, species assumed): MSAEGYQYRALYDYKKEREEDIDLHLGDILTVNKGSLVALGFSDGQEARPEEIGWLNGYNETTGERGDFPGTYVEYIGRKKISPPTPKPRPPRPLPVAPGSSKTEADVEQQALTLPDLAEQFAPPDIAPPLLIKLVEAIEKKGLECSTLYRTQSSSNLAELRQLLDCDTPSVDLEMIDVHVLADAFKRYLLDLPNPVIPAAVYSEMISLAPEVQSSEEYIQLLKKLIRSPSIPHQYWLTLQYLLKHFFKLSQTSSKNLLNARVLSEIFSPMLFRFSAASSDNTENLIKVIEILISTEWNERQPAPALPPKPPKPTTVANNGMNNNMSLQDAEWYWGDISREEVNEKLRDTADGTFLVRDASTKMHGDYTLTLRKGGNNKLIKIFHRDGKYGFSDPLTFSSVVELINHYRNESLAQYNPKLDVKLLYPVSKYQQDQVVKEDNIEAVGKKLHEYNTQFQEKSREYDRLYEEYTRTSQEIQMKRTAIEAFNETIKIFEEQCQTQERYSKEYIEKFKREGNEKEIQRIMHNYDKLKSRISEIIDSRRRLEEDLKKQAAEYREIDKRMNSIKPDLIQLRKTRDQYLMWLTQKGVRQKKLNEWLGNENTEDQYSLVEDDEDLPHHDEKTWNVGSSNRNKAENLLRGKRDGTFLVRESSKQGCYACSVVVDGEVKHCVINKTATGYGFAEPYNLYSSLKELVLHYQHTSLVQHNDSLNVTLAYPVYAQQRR

| SMILES | IC50 (PI3Kβ; Table 1, graded) | IC50 (PI3Kβ; Table 4, graded) | Final survival condition (survived individuals/total individuals) [1] | IC50 [2, 4] | IC50 (HDAC9) | EC50 [3] | Tumor inhibitory rate (%) [1] | IC50 ([2]; read-out: IC50 to proliferation of A2780s cells) |
| --- | --- | --- | --- | --- | --- | --- | --- | --- |
| COc1ccc(-c2nc(N3CCOCC3)c3nc(CN(C)c4ncc(C(=O)NO)cn4)n(C)c3n2)cn1 [CLJ-1, 2-(((2-(6-methoxypyridine-3-yl)-9-methyl-6-morpholine-9H-purine-8-yl))methyl(methyl)amino)-N-hydroxyl pyrimidine-5-formamide] | 1000 to 10000 nM | 1000 to 10000 nM | 5/6 | 0.1 to 10 nM | 1 to 10 µM | 100 to 200 nM |  |  |
| CN(Cc1nc2c(N3CCOCC3)nc(-c3cnc(N)nc3)nc2n1C)c1ncc(C(=O)NO)cn1 [CLJ-11, 2-(((2-(2-aminopyrimidine-5-yl)-9-methyl-6-morpholine-9H-purine-8-yl))methyl(methyl)amino)-N-hydroxyl pyrimidine-5-formamide] | 100 to 1000 nM | 1 to 100 nM | 4/6 | 10 to 100 nM | 1 to 10 µM | 100 to 200 nM | 45.1% |  |
| COc1ccc(-c2nc(N3CCOCC3)c3nc(CN(C)c4ncc(C(=O)NO)cn4)n(C)c3n2)cc1 [CLJ-29, 2-(((2-(4-methoxyphenyl)-9-methyl-6-morpholine-9H-purine-8-yl))methyl(methyl)amino)-N-hydroxyl pyrimidine-5-formamide] |  | > 10000 nM | 4/6 | 0.1 to 10 nM | 1 to 10 µM | < 100 nM |  | 0.1 to 10 nM |
| CN(Cc1nc2c(N3CCOCC3)nc(-c3ccc(N)cc3)nc2n1C)c1ncc(C(=O)NO)cn1 [CLJ-44] |  | > 10000 nM | 6/6 | 0.1 to 10 nM | 1 to 10 µM | 100 to 200 nM |  |  |
| Cc1[nH]c2ccccc2c1CCNCc1ccc(/C=C/C(=O)NO)cc1 [LBH589, panobinostat, reference compound] |  | > 10000 nM |  | 0.1 to 10 nM |  | 100 to 200 nM |  |  |
